Laboratory results reported in ChEMBL document CHEMBL1128063, “Discovery of selective dopamine D3 ligands: I. Dimeric 2-[4-(3-aminopropoxy)phenyl]benzimidazole antagonists” (Bioorg Med Chem Lett, 1995).

How the values were obtained:
D(3) dopamine receptor = D(3) dopamine receptor (Homo sapiens, UniProt P35462); test: Binding affinity towards human cloned Dopamine D3 receptor in CHO cells by [3H]spiperone displacement.; type: cell-based
D(2) dopamine receptor = D(2) dopamine receptor (Homo sapiens, UniProt P14416); test: Binding affinity towards human cloned Dopamine D2 receptor in CHO cells by [3H]spiperone displacement.; type: cell-based
Sequence of D(2) dopamine receptor (P14416 whole entry): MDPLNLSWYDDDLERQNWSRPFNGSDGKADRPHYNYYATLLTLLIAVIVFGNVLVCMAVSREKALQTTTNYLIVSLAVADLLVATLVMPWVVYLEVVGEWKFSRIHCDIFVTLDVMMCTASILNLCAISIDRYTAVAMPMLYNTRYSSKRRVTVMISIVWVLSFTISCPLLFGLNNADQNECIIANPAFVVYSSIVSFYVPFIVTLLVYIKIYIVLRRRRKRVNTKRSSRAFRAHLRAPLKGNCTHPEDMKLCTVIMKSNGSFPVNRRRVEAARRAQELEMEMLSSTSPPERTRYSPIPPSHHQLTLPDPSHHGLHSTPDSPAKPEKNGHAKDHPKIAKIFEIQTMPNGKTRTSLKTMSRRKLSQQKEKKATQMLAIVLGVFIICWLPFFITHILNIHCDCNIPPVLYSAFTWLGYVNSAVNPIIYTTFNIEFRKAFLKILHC

Mus musculus = test: Compound was tested for the locomotory activity in mice after ip administration; type: functional
Rattus norvegicus = test: Compound was tested for the locomotory activity in rats after oral administration; no effect; type: functional

Sequence of D(3) dopamine receptor (P35462 whole entry): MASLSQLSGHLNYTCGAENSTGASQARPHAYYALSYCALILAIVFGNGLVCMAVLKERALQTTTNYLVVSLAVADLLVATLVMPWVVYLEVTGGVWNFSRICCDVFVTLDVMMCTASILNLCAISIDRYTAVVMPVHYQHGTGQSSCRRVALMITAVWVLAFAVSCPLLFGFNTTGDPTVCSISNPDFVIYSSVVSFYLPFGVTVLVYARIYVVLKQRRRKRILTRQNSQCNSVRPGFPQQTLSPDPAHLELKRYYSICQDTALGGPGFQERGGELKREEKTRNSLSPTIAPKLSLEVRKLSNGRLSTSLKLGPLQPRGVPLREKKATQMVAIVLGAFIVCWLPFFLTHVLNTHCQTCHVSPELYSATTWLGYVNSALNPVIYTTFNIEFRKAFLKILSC

## CCN(CC)CCCOc1ccc(-c2nc3ccccc3n2Cc2ccc(Cn3c(-c4ccc(OCCCN(CC)CC)cc4)nc4ccccc43)cc2)cc1
D(3) dopamine receptor
  Ki: 184 nM
D(2) dopamine receptor
  Ki: 3440 nM

## CN(C)CCCOc1ccc(-c2nc3ccccc3n2C/C=C/Cn2c(-c3ccc(OCCCN(C)C)cc3)nc3ccccc32)cc1
D(3) dopamine receptor
  Ki: 144 nM
D(2) dopamine receptor
  Ki: 4990 nM

## CCN(CC)CCCOc1ccc(-c2nc3ccccc3n2C/C=C/Cn2c(-c3ccccc3)nc3ccccc32)cc1
D(3) dopamine receptor
  Ki: 133 nM
D(2) dopamine receptor
  Ki: 6530 nM

## CCCCN(CCCC)CCCOc1ccc(-c2nc3ccccc3n2C/C=C/Cn2c(-c3ccc(OCCCN(CCCC)CCCC)cc3)nc3ccccc32)cc1
D(2) dopamine receptor
  Ki: 472 nM

## CCN(CC)CCCOc1ccc(-c2nc3ccccc3n2C/C=C/Cn2c(C)nc3ccccc32)cc1
D(3) dopamine receptor
  Ki: 1200 nM
D(2) dopamine receptor
  Ki: > 3330 nM

## C(=C\Cn1c(-c2ccc(OCCCN3CCOCC3)cc2)nc2ccccc21)/Cn1c(-c2ccc(OCCCN3CCOCC3)cc2)nc2ccccc21
D(3) dopamine receptor
  Ki: > 2040 nM
D(2) dopamine receptor
  Ki: > 3330 nM

## C(=C\Cn1c(-c2ccc(OCCCN3CCCCC3)cc2)nc2ccccc21)/Cn1c(-c2ccc(OCCCN3CCCCC3)cc2)nc2ccccc21
D(3) dopamine receptor
  Ki: 10 nM
D(2) dopamine receptor
  Ki: 517 nM
Mus musculus
  ED50: 7.1 mg/kg
Rattus norvegicus
  ED50: > 30 mg/kg

## CCN(CC)CCCOc1ccc(-c2nc3ccccc3n2C/C=C/Cn2c(-c3ccc(OCCCN4CCN(c5ccccc5)CC4)cc3)nc3ccccc32)cc1
D(3) dopamine receptor
  Ki: 19 nM
D(2) dopamine receptor
  Ki: 803 nM

## CCN(CC)CCCOc1ccc(-c2nc3ccccc3n2CCCCn2c(-c3ccc(OCCCN(CC)CC)cc3)nc3ccccc32)cc1
D(3) dopamine receptor
  Ki: 28 nM
D(2) dopamine receptor
  Ki: 1490 nM

## CCN(CC)CCCOc1ccc(-c2nc3ccccc3n2C/C=C/Cn2c(-c3ccc(OCCCN(CC)CC)cc3)nc3ccccc32)cc1
D(3) dopamine receptor
  Ki: 35 nM
D(2) dopamine receptor
  Ki: 2350 nM

## CCN(CC)CCCOc1ccc(-c2nc3ccccc3n2CCCCCCn2c(-c3ccc(OCCCN(CC)CC)cc3)nc3ccccc32)cc1
D(3) dopamine receptor
  Ki: 131 nM
D(2) dopamine receptor
  Ki: 1750 nM

## CCCN(CCC)CCCOc1ccc(-c2nc3ccccc3n2C/C=C/Cn2c(-c3ccc(OCCCN(CCC)CCC)cc3)nc3ccccc32)cc1
D(3) dopamine receptor
  Ki: 5 nM
D(2) dopamine receptor
  Ki: 343 nM

## CCN(CC)CCCOc1ccc(-c2nc3ccccc3n2C/C=C/Cn2c(-c3ccc(OC)cc3)nc3ccccc32)cc1
D(2) dopamine receptor
  Ki: 1410 nM

## CCN(CC)CCCOc1ccc(-c2nc3ccccc3n2C/C=C/Cn2c(-c3ccc(OCCCC4CCCCC4)cc3)nc3ccccc32)cc1
D(3) dopamine receptor
  Ki: 39 nM
D(2) dopamine receptor
  Ki: 1030 nM

## C(=C\Cn1c(-c2ccc(OCCCN3CCN(c4ccccc4)CC3)cc2)nc2ccccc21)/Cn1c(-c2ccc(OCCCN3CCN(c4ccccc4)CC3)cc2)nc2ccccc21
D(3) dopamine receptor
  Ki: 275 nM
D(2) dopamine receptor
  Ki: 3940 nM

## CCN(CC)CCCOc1ccc(-c2nc3ccccc3n2CC=CCn2c(-c3ccc(OCCCN(CC)CC)cc3)nc3ccccc32)cc1
D(3) dopamine receptor
  Ki: 87 nM
D(2) dopamine receptor
  Ki: 1520 nM

## C(=C\Cn1c(-c2ccc(OCCCN3CCCC3)cc2)nc2ccccc21)/Cn1c(-c2ccc(OCCCN3CCCC3)cc2)nc2ccccc21
D(3) dopamine receptor
  Ki: 9 nM
D(2) dopamine receptor
  Ki: 56 nM
